Experimental findings from US5604263A, “Treating osteoporosis with humulones” (Hoechst Japan Limited, priority 1994, dated 1997) are described below.

Each structure is given as a SMILES string. Like-named read-outs stand apart in the source and are kept apart here.

For this test, the system named is bone resorption (pit formation) by bone cell containing osteoclasts. Nature of the test: Pit formation assay (bone resorption inhibiting activity; absorption cavities on ivory pieces). In kind it is cell-based, ICR mice. As to conditions: for No. of pits (Mean ± SD): control 328.0 ± 51.0; for IC50 / inhibition at 10 µM / inhibition at 1 µM / inhibition at 0.1 µM / inhibition at 0.01 µM / inhibition at 0.001 µM / inhibition at 0.0001 µM / inhibition at 10 pM: Mus musculus, Osteoclast; for IC50: read-out: 50% inhibitory (ID50) value. As for the experimental part:
From 10 to 11-day old ICR mice (purchased from Charles River Inc.) were extracted femur and shank, which were then chopped using scissors in a-MEM medium (purchased from Flow Laboratories Inc.) containing 5% FBS (purchased from Irving Scientific Inc.), 100 U/ml penicillin and 100 μg/ml streptomycin. And further, the resulting supernatant was recovered by pipetting, washed with the medium and then suspended in 5% FBS, a-MEM medium to form bone cell containing osteoclasts. The bone cell suspension thus prepared was incubated in the medium containing rat parathyroid hormone for one week. After completion of the incubation, the cells were recovered using 0.05% trypsin EDTA-PBS and applied to pit formation assay.
An ivory piece was cut to a thickness of 150 μm using a precision low speed cutter (purchased from Buehler GmbH) and then round pieces with a diameter of 6 mm were cut out using a one-hole punch. These ivory pieces were immersed in 70% ethanol, subjected to sonication twice for each 5 minutes and then washed three times with sterile PBS and twice with the medium. These ivory pieces were placed in a 96-well culture plate (purchased from Falcon Inc.) and 100 µl of the medium containing medicaments at various concentrations was added. Then, 100 μl of the media containing the above prepared bone cells 1×10^5 was added to each well. Incubation was carried out at 37° C. in a 10% CO2 incubator for 2 days. After completion of the incubation, the cell over the ivory piece was removed, absorption cavities were stained with Coomassie Brilliant Blue and the number of the absorption cavities thus formed was counted under microscope.
Organosynthetic humulone was prepared according to Obara, H. et al., Bull. Chem. Soc. Jpn., vol.62, p.3034-3035 (1989). Bone resorption inhibiting activities of the organosynthetic humulone thus obtained and α acids obtained in example 1 were determined by means of the assay as described in (2) of example 2.
Bone resorption inhibiting activities of the native humulone thus obtained in Example 4 and the organosynthetic humulone thus obtained in Example 3 were determined by means of the assay as described in (2) of example 2.

The term inhibition denotes the relative decrease from the control value, in per cent. For `CC(C)=CCC1=C(O)C(C(=O)CC(C)C)=C(O)C(O)(CC=C(C)C)C1=O` (single isomer, unassigned) [Native humulone, humulone], for the setting “Example 5, dose 10^-5 M”, the “No. of pits (Mean ± SD)” value is 0.3 ± 0.5 and testing at 10 µM gave an inhibition of 99.9%. Besides, where the note is “Example 5, dose 10^-6 M”, the “No. of pits (Mean ± SD)” value was found to be 6.5 ± 3.8 and the inhibition at 1 µM turned out to be 98%. For the setting “Example 5, dose 10^-7 M”, the “No. of pits (Mean ± SD)” value is recorded as 34.5 ± 7.4 and the inhibition at 0.1 µM came out at 89.5%. Where the note is “Example 5, dose 10^-8 M”, the “No. of pits (Mean ± SD)” value is given as 128.5 ± 23.1 and the inhibition at 0.01 µM was 60.8%. Moreover, under “Example 5, dose 10^-9 M”, the “No. of pits (Mean ± SD)” value was 251.5 ± 135.4 and the inhibition at 0.001 µM was found to be 23.3%. Under “Example 5, dose 10^-10 M”, the “No. of pits (Mean ± SD)” value is given as 274.3 ± 54.9 and the inhibition at 0.0001 µM turned out to be 16.4%. Further, under “Example 5, dose 10^-11 M”, the “No. of pits (Mean ± SD)” value was 274.3 ± 91.6 and testing at 10 pM gave an inhibition of 16.4%. Further, the IC50 (Example 5) came out at 5.9 nM.

In the case of `CC(C)=CCC1C(=O)C(C(=O)CC(C)C)=C(O)C(O)(CC=C(C)C)C1=O` (stereo not shown) [Organosynthetic humulone, humulone], under “Example 5, dose 10^-5 M”, the “No. of pits (Mean ± SD)” value turned out to be 6.8 ± 5.3 and 10 µM produced 97.9% inhibition. In addition, for the setting “Example 5, dose 10^-6 M”, the “No. of pits (Mean ± SD)” value came to 33.7 ± 20.2 and the inhibition at 1 µM is 89.7%. Further, under “Example 5, dose 10^-7 M”, the “No. of pits (Mean ± SD)” value is 70.7 ± 9.3 and testing at 0.1 µM gave an inhibition of 78.4%. For the same compound, under “Example 5, dose 10^-8 M”, the “No. of pits (Mean ± SD)” value was 217.0 ± 89.1 and the inhibition at 0.01 µM was found to be 33.8%. Besides, under “Example 5, dose 10^-9 M”, the “No. of pits (Mean ± SD)” value was 221.8 ± 88.3 and the inhibition at 0.001 µM turned out to be 32.4%. Further, under “Example 5, dose 10^-10 M”, the “No. of pits (Mean ± SD)” value was determined as 221.3 ± 54.1 and at 0.0001 µM the inhibition was 32.5%. Besides, where the note is “Example 5, dose 10^-11 M”, the “No. of pits (Mean ± SD)” value stood at 281.3 ± 38.1 and the inhibition at 10 pM came out at 14.2%. Also, where the note is “Example 3, organosynthetic humulone and α acids of example 1”, the IC50 was 130 nM. The IC50 (Example 5) stood at 26 nM.
